Legend:
[1] = molecular target: T1, C-C chemokine receptor type 4 (Homo sapiens, UniProt P51679); experiment: Antagonist activity at recombinant human CCR4 expressed in CHO-K1 cells assessed as inhibition of CCL22 induced Ca2+ mobilization after 2 hrs by FMAT based fluorescence assay; assay type: functional, cell-based
T1 sequence (P51679 whole entry): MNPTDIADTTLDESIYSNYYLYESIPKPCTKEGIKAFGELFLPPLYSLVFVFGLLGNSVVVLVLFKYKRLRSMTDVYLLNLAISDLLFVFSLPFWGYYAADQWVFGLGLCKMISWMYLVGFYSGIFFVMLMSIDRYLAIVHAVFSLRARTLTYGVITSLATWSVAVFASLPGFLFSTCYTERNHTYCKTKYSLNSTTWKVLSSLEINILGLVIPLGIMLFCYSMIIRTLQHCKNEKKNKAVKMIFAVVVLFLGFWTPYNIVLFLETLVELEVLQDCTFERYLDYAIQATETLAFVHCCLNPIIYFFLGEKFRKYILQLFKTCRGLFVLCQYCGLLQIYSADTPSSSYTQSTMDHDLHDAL

[2] = Protein binding in human plasma; assay type: ADME, cell-free; conditions: read-out: PPB (converted)
[3] = Lipophilicity, log P of the compound; assay type: physicochemical; conditions: octanol/water
[4] = molecular target: T2, C-C chemokine receptor type 4 (Homo sapiens) (UniProt P51679); experiment: Antagonist activity at recombinant human CCR4 expressed in CHO-K1 cells assessed as inhibition of CCL22 induced Ca2+ mobilization at 10 uM after 2 hrs by FMAT based fluorescence assay relative to control; assay type: functional, cell-based
T2 sequence (whole entry): T1 sequence (P51679 whole entry)

| Structure (SMILES) | IC50 [1] [nM] | fraction unbound [2] | logP [3] | inhibition [4] [%] |
| --- | --- | --- | --- | --- |
| O=S(=O)(Nc1ncc(Cl)nc1OCc1cncnc1)c1cccc(Cl)c1Cl | 12.6 | < 0.001 |  |  |
| COc1nc(C)cnc1NS(=O)(=O)c1cccc(Cl)c1Cl | 39.8 | 0.0035 | 3 |  |
| COc1nc(Cl)cnc1NS(=O)(=O)c1cccc(Cl)c1F | 79.4 |  |  |  |
| O=S(=O)(Nc1ncc(Cl)nc1OCc1ccccc1CO)c1cccc(Cl)c1Cl |  | < 0.001 |  |  |
| COc1nc(Br)cnc1NS(=O)(=O)c1cccs1 | 631 |  |  |  |
| CCOc1cnc(NS(=O)(=O)c2cccc(Cl)c2Cl)c(OC)n1 | 12.6 | < 0.001 | 4.1 |  |
| CCOc1nc(Br)cnc1NS(=O)(=O)c1ccc(Cl)s1 | 200 |  |  |  |
| CNc1nc(Br)cnc1NS(=O)(=O)c1ccc(Cl)s1 | > 10000 |  |  | 44 |
| O=S(=O)(Nc1ncc(Cl)nc1OCc1cccc(Br)c1)c1cccc(Cl)c1Cl | 3.98 | < 0.001 |  |  |
| COc1nc(Cl)cnc1NS(=O)(=O)c1ccnc(Cl)c1Cl | 10000 |  |  |  |
| COc1nc(Br)cnc1NS(=O)(=O)c1cccc(Cl)c1Cl | 10 | < 0.001 |  |  |
| COc1nc(CO)c(C)nc1NS(=O)(=O)c1cccc(Cl)c1Cl | 39.8 | 0.013 | 2.4 |  |
| COc1nc(Br)cnc1NS(=O)(=O)c1sccc1-c1ccccc1 | 1000 |  |  |  |
| O=S(=O)(Nc1ncc(Cl)nc1OCc1cccnc1)c1cccc(Cl)c1Cl | 0.631 | < 0.001 |  |  |
| COc1nc(S(C)(=O)=O)cnc1NS(=O)(=O)c1cccc(Cl)c1Cl | 5010 |  |  |  |
| COc1nc(Cl)cnc1NS(=O)(=O)c1cccc(F)c1Cl | 15.8 |  |  |  |
| CC(C)(C)COc1nc(Cl)cnc1NS(=O)(=O)c1cccc(Cl)c1Cl | 7940 |  |  |  |
| COc1nc(Br)cnc1NS(=O)(=O)c1ccc(Cl)cc1 | 126 |  |  |  |
| COc1nc(Cl)cnc1NS(=O)(=O)c1scc(Cl)c1Cl | 7.94 |  |  |  |
| COc1ncc(Cl)nc1NS(=O)(=O)c1cccc(Cl)c1Cl | 7.94 | < 0.001 | 4.5 |  |

Results, then the compound that gave them:

| IC50 [1] [nM] | fraction unbound [2] | logP [3] | inhibition [4] [%] | Structure (SMILES) |
| --- | --- | --- | --- | --- |
| 158 |  |  |  | COc1nc(Br)cnc1NS(=O)(=O)c1ccccc1Cl |
| 3.98 | 0.004 | 3.2 |  | COc1nc(CO)c(Cl)nc1NS(=O)(=O)c1cccc(Cl)c1Cl |
| 15.8 |  |  |  | C=CCOc1nc(Cl)cnc1NS(=O)(=O)c1cccc(Cl)c1Cl |
| 100 |  |  |  | COc1nc(Br)cnc1NS(=O)(=O)c1cccc(Cl)c1 |
| 631 |  |  |  | COc1nc(Br)cnc1NS(=O)(=O)c1c(Cl)cccc1Cl |
| 39.8 |  |  |  | COc1nc(Br)cnc1NS(=O)(=O)c1sc(Cl)cc1Br |
| 126 |  |  |  | COc1nc(Br)cnc1NS(=O)(=O)c1ccc(Cl)cc1Cl |
| 5010 |  |  |  | CCc1nc(Br)cnc1NS(=O)(=O)c1ccc(Cl)s1 |
| 63.1 |  |  |  | COc1nc(Cl)cnc1NS(=O)(=O)c1cccc(Cl)c1C#N |
| 794 |  |  |  | COc1nc(Br)cnc1NS(=O)(=O)c1ccccc1 |
| 2.51 |  |  |  | C#CCOc1nc(Cl)cnc1NS(=O)(=O)c1cccc(Cl)c1Cl |
| 50.1 | < 0.002 |  |  | COc1ncc(C)nc1NS(=O)(=O)c1cccc(Cl)c1Cl |
| 63.1 |  |  |  | COc1nc(Cl)cnc1NS(=O)(=O)c1cccc(C(F)(F)F)c1Cl |
| 5010 |  |  |  | COc1nc(Br)cnc1NS(=O)(=O)c1cc(Cl)cc(Cl)c1 |
|  | < 0.001 | 4.1 |  | COc1nc(Cl)cnc1NS(=O)(=O)c1cccc(Cl)c1Cl |
| 3160 |  |  |  | CCCCS(=O)(=O)Nc1ncc(Cl)nc1OC |
| 200 |  |  |  | COc1nc(Br)cnc1NS(=O)(=O)c1ccc(Cl)c(Cl)c1 |
| 1 | < 0.002 |  |  | COc1nc(F)c(F)nc1NS(=O)(=O)c1cccc(Cl)c1Cl |
| 25.1 | 0.038 | 2.1 |  | COc1nc(CO)cnc1NS(=O)(=O)c1cccc(Cl)c1Cl |
| 20 | 0.025 | 2.8 |  | COc1nccnc1NS(=O)(=O)c1scc(Cl)c1Cl |
| 3160 |  |  |  | COc1nc(Br)cnc1NS(=O)(=O)c1cc(Cl)ccc1Cl |
| 1000 |  |  |  | COc1nc(Br)cnc1NS(=O)(=O)c1cc(Cl)c(Cl)s1 |
| 1260 |  |  |  | COc1nc(Br)cnc1NS(=O)(=O)c1ccsc1 |
| 3.98 | < 0.002 | 3.3 |  | COc1ncc(F)nc1NS(=O)(=O)c1cccc(Cl)c1Cl |
| 3160 |  |  |  | CSc1nc(Br)cnc1NS(=O)(=O)c1ccc(Cl)s1 |
| 20 |  |  |  | COc1nc(Cl)cnc1NS(=O)(=O)c1cccc(Cl)c1C |
